“And” between values parts separate entries of the source, which are not always exact repeats. Identical values can stand only once.
Columns and labels:
MCF-10A = assay: MTT cytotoxicity assay, non-cancer MCF-10A; assay type: cell-based, human; details: 72 h incubation, mean ± SD of three independent experiments
HCT116 = assay: MTT antiproliferative assay, HCT116; assay type: cell-based, human; details: mean ± SD of three independent experiments
MDA-MB-231 = assay: MTT antiproliferative assay, MDA-MB-231; assay type: cell-based, human; details: MDA-MB-231, 72 h incubation, mean ± SD of three independent experiments
Jurkat = assay: MTT antiproliferative assay, Jurkat; assay type: cell-based, human; details: 72 h incubation, mean ± SD of three independent experiments
[1] = ABTS radical scavenging activity; details: sample 1 mM, 30 min, gallic acid equivalents, mean (±SD), triplicate
Excerpt: (§1) Table 3 Antioxidant activity.

[2] = DPPH radical scavenging activity; details: sample 1 mM; for DPPH: 30 min, gallic acid equivalents, mean (±SD), triplicate
[3] = Ferric reducing antioxidant power (FRAP); details: sample 1 mM, 30 min, gallic acid equivalents, mean (±SD), triplicate
Excerpt: as §1

Hela = assay: MTT antiproliferative assay, HeLa; assay type: cell-based, human; details: 72 h incubation, mean ± SD of three independent experiments
Procedure: Table 2 IC50 (μM) ± SD of tested compounds in different cell lines after 72 h incubation. | column: Cell Line, IC50 (µM) ± SD / Hela

MCF-7 = assay: MTT antiproliferative assay, MCF-7; assay type: cell-based, human; details: mean ± SD of three independent experiments
Bj-5ta = assay: MTT cytotoxicity assay, non-cancer Bj-5ta; assay type: cell-based, human; details: 72 h incubation, mean ± SD of three independent experiments
[4] = Homo sapiens, HCT-116, 72 h, HCT116, 72 h incubation
[5] = Homo sapiens, MCF7, 72 h, MCF-7, 72 h incubation
[6] = Homo sapiens, HCT-116, HCT116, 72 h incubation
[7] = Homo sapiens, MCF7, MCF-7, 72 h incubation

Row | SMILES | IC50 (MCF-10A) [µM] | IC50 (HCT116; HCT116, 72 h incubation) [µM] | IC50 (MDA-MB-231) [µM] | IC50 (Jurkat) | ABTS [1] | DPPH [2] | FRAP [3] | IC50 (Hela) [µM] | IC50 (MCF-7; MCF-7, 72 h incubation) [µM] | IC50 (MCF-10A; Homo sapiens, MCF-10A, 72 h) [µM] | IC50 (MDA-MB-231; Homo sapiens) [µM] | IC50 (Hela; Homo sapiens, HeLa, 72 h) [µM] | IC50 (MCF-7; [5]) [µM] | melting point [°C] | other results
1 | O=C(/C=C/c1c[nH]c2ccccc12)c1ccccc1F [11a, (2E)-1-(2″-Fluorophenyl)-3-(1′H-indol-3′-yl)prop-2-en-1-one] | 89.1 ± 2.4 | 31.8 ± 2.1 | 51.4 ± 3.2 | < 8.3 µM and 7.6 µM | 150.6 (±4.7) µmol GAE/mmol | 20.5 (±4.0) µmol GAE/mmol | 62.2 (±9.9) µmol GAE/mmol | 41.7 ± 0.2 | 37.1 ± 0.4 | – | – | – | – | – | –
2 | Cn1cc(/C=C/C(=O)c2ccccc2F)c2ccccc21 [11b, (2E)-1-(2″-Fluorophenyl)-3-(1′-metyl-1′H-indol-3′-yl)prop-2-en-1-one] | > 100 | 41.5 ± 1.7 | > 100 | 32.4 ± 1.2 µM | 5.7 (±2.7) µmol GAE/mmol | 18.9 (±2.3) µmol GAE/mmol | 47.2 (±1.0) µmol GAE/mmol | 57.9 ± 0.4 | 47.5 ± 4.3 | – | – | – | – | – | –
3 | COn1cc(/C=C/C(=O)c2ccccc2F)c2ccccc21 [11c, (2E)-1-(2″-Fluorophenyl)-3-(1′-methoxy-1′H-indol-3′-yl)prop-2-en-1-one] | 67 ± 2.9 | 37.9 ± 2.7 | 21.1 ± 3.9 | < 8.3 µM and 5.9 µM | 41.4 (±6.7) µmol GAE/mmol | 23.2 (±11.9) µmol GAE/mmol | 27.4 (±0.9) µmol GAE/mmol | 19.2 ± 5.7 | 20 ± 7.9 | – | – | – | – | – | –
4 | COc1[nH]c2ccccc2c1/C=C/C(=O)c1ccccc1F [11d, (2E)-1-(2″-Fluorophenyl)-3-(2′-methoxy-1′H-indol-3′-yl)prop-2-en-1-one] | 98 ± 1.3 | 45.5 ± 2.4 | 95.5 ± 2.7 | 11.4 ± 1.9 µM | – | – | – | > 100 | 32 ± 1.2 | – | – | – | – | – | –
5 | CCOc1[nH]c2ccccc2c1/C=C/C(=O)c1ccccc1F [11e, (2E)-3-(2′-ethoxy-1′H-indol-3′-yl)-1-(2″-fluorophenyl)prop-2-en-1-one] | 94 ± 4.6 | 40.1 ± 0.6 | 72.2 ± 5.4 | < 8.3 µM and 8.3 µM | – | – | – | 75.2 ± 4.1 | 30.3 ± 2.2 | – | – | – | – | – | –
6 | CC(C)Oc1[nH]c2ccccc2c1/C=C/C(=O)c1ccc(F)cc1 [11g, (2E)-1-(4″-Fluorophenyl)-3-(2′-isopropoxy-1′H-indol-3′-yl)prop-2-en-1-one] | 41.8 ± 1.5 | 31.7 ± 1.7 | 33.3 ± 0.3 | 36.7 ± 4.9 µM | – | – | – | 34.2 ± 0.1 | 17.1 ± 2.3 | – | – | – | – | – | –
7 | CCCCOc1[nH]c2ccccc2c1/C=C/C(=O)c1ccccc1F [11h, (2E)-3-(2′-butoxy-1′H-indol-3′-yl)-1-(2″-fluorophenyl)prop-2-en-1-one] | 65.5 ± 3.7 | 31 ± 2.9 | 36.3 ± 2.1 | 35.9 ± 1.8 µM | – | – | – | 48.2 ± 1 | 13.8 ± 3.5 | – | – | – | – | – | –
8 | CC(C)COc1[nH]c2ccccc2c1/C=C/C(=O)c1ccc(F)cc1 [11i, (2E)-3-(2′-isobutoxy-1′H-indol-3′-yl)-1-(4″-fluorophenyl)prop-2-en-1-one] | 93.3 ± 3.4 | 33.8 ± 0.1 | 42.9 ± 0.4 | 40.1 ± 3.2 µM | – | – | – | 54.6 ± 3.6 | 30.7 ± 0.6 | – | – | – | – | – | –
9 | COCC(C)Oc1[nH]c2ccccc2c1/C=C/C(=O)c1ccccc1F (centres unmarked) [11j, (2E)-1-(2-fluorophenyl)-3-{2-[(1-methoxypropan-2-yl)oxy]-1H-indol-3-yl}prop-2-en-1-one] | – | – | – | – | – | – | – | – | – | 76.5 ± 1.1 | 51.2 ± 4.1 | 50 ± 1.8 | 26.2 ± 0.5 | – | IC50 (HCT116; [4]): 32.4 ± 1.3 µM; IC50 (Jurkat; Homo sapiens): 40.4 ± 2.1 µM
10 | O=C(/C=C/c1c(OCCO)[nH]c2ccccc12)c1ccccc1F [11k, (2E)-1-(2-fluorophenyl)-3-[2-(2-hydroxyethoxy)-1H-indol-3-yl]prop-2-en-1-one] | – | – | – | – | – | – | – | – | – | 94.7 ± 2.6 | 64.5 ± 4.7 | 52.9 ± 1.6 | 38.1 ± 3.3 | 140 to 143 | IC50 (HCT116; [4]): 39.4 ± 1.5 µM; IC50 (Jurkat; Homo sapiens): 37.8 ± 0.9 µM
11 | Cn1cc(/C=C/C(=O)c2ccc(C(F)(F)F)cc2)c2ccccc21 [12b, (2E)-3-(1-methyl-1H-indol-3-yl)-1-(4-trifluoromethylphenyl) prop-2-en-1-one] | – | – | – | – | – | – | – | – | – | > 100 | > 100 | 32.8 ± 0.4 | 20.5 ± 5.1 | 182 to 184 | IC50 (HCT116; [4]): 12.3 ± 0.2 µM; IC50 (Bj-5ta; Homo sapiens): > 100 µM; IC50 (Jurkat; Homo sapiens): > 100 µM
12 | COn1cc(/C=C/C(=O)c2ccc(C(F)(F)F)cc2)c2ccccc21 [12c, (2E)-3-(1-methoxy-1H-indol-3-yl)-1-(4-trifluoromethylphenyl) prop-2-en-1-one] | – | – | – | – | – | – | – | – | – | 38.4 ± 3.1 | 81.3 ± 1.2 | 98 ± 2.8 | 86 ± 3.5 | 113 to 115 | IC50 (HCT116; [4]): 55.3 ± 1.7 µM; IC50 (Bj-5ta; Homo sapiens): > 100 µM; IC50 (Jurkat; Homo sapiens): 39.3 ± 1.2 µM
13 | O=C(/C=C/c1c[nH]c2ccccc12)c1ccccc1O [13a, (2E)-1-(2-hydroxyphenyl)-3-(1H-indol-3-yl)prop-2-en-1-one] | – | – | – | – | 292.4 (±12.4) µmol GAE/mmol | 14.2 (±0.4) µmol GAE/mmol | 125.2 (±9.4) µmol GAE/mmol | – | – | 55.4 ± 3.6 | 92.7 ± 1.8 | 39.6 ± 3.5 | 44.7 ± 2.6 | 179.5 to 181 | IC50 (HCT116; [4]): 40.5 ± 3.1 µM; IC50 (Bj-5ta; Homo sapiens): 81.5 ± 0.2 µM; IC50 (Jurkat; Homo sapiens): 25.9 ± 2.4 µM
14 | O=C(/C=C/c1ccc(O)cc1)c1c[nH]c2ccccc12 [17a, (2E)-3-(4-hydroxyphenyl)-1-(1H-indol-3-yl)prop-2-en-1-one] | – | – | – | – | 227.6 (±5.4) µmol GAE/mmol | 16.0 (±1.1) µmol GAE/mmol | 161.6 (±5.7) µmol GAE/mmol | – | – | 28.6 ± 0.5 | 39.6 ± 2.1 | 31.4 ± 2 | 47.9 ± 0.2 | 197 to 200 | –
15 | Cn1cc(C(=O)/C=C/c2ccc(O)cc2)c2ccccc21 [17b, (2E)-3-(4-hydroxyphenyl)-1-(1-methyl-1H-indol-3-yl)prop-2-en-1-one] | – | – | – | – | 218.9 (±5.6) µmol GAE/mmol | 20.7 (±6.6) µmol GAE/mmol | 156.2 (±1.1) µmol GAE/mmol | – | – | – | – | – | – | 236 to 239 | IC50 (MCF-10A; Homo sapiens): 22.8 ± 0.4 µM; IC50 (HCT116; [6]): > 100 µM; IC50 (MCF-7; [7]): 50.3 ± 0.6 µM
16 | COn1cc(C(=O)/C=C/c2ccc(O)cc2)c2ccccc21 [17c, (2E)-3-(4-hydroxyphenyl)-1-(1-methoxy-1H-indol-3-yl)prop-2-en-1-one] | – | – | – | – | 209.0 (±6.6) µmol GAE/mmol | 13.6 (±0.9) µmol GAE/mmol | 134.1 (±6.7) µmol GAE/mmol | – | – | > 100 | > 100 | 39.8 ± 1.6 | > 100 | 213 to 215 | –
17 | O=C(/C=C/c1ccc(O)c(O)c1)c1c[nH]c2ccccc12 [18a, (2E)-3-(3,4-dihydroxyphenyl)-1-(1H-indol-3-yl)prop-2-en-1-one] | – | – | – | – | 401.2 (±39.2) µmol GAE/mmol | 520.1 (±6.9) µmol GAE/mmol | 480.9 (±28.8) µmol GAE/mmol | – | – | 11.5 ± 1.4 | 39.3 ± 1.9 | – | 42.3 ± 3.3 | 212 to 215 | IC50 (HCT116; [4]): 29.8 ± 0.7 µM
18 | Cn1cc(C(=O)/C=C/c2ccc(O)c(O)c2)c2ccccc21 [18b, (2E)-3-(3,4-dihydroxyphenyl)-1-(1-methyl-1H-indol-3-yl)prop-2-en-1-one] | – | – | – | – | 487.3 (±43.9) µmol GAE/mmol | 589.1 (±8.9) µmol GAE/mmol | 564.8 (±2.2) µmol GAE/mmol | – | – | – | – | – | – | 210 to 214 | IC50 (MCF-10A; Homo sapiens): 7.8 ± 0.3 µM; IC50 (HCT116; [6]): 7.1 ± 0.7 µM; IC50 (Hela; Homo sapiens): 6.7 ± 0.8 µM; IC50 (MCF-7; [7]): 37.4 ± 2.2 µM
19 | COc1cc(/C=C/C(=O)c2cn(C)c3ccccc23)ccc1O [19b, (2E)-3-(4-hydroxy-3-methoxyphenyl)-1-(1-methyl-1H-indol-3-yl)prop-2-en-1-one] | – | – | – | – | 410.7 (±28.9) µmol GAE/mmol | 225.6 (±14.7) µmol GAE/mmol | 262.2 (±14.2) µmol GAE/mmol | – | – | – | – | – | – | 170 to 172 | IC50 (MCF-10A; Homo sapiens): 28.9 ± 0.8 µM; IC50 (Hela; Homo sapiens): 34.9 ± 1.3 µM; IC50 (MCF-7; [7]): 69.8 ± 1.1 µM
20 | COc1cc(/C=C/C(=O)c2cn(OC)c3ccccc23)ccc1O [19c, (2E)-3-(4-hydroxy-3-methoxyphenyl)-1-(1-methoxy-1H-indol-3-yl)prop-2-en-1-one] | – | – | – | – | 456.0 (±24.6) µmol GAE/mmol | 207.7 (±8.6) µmol GAE/mmol | 296.2 (±10.4) µmol GAE/mmol | – | – | – | – | – | – | 155 to 156 | –
21 | N.N.[Cl][Pt][Cl] [Cisplatin, reference compound] | 25.9 ± 2.1 | 15.3 ± 1.6 | 17.4 ± 0.2 | 6.3 ± 0.4 µM | – | – | – | 6.5 ± 0.5 | 24.6 ± 2.1 | – | – | – | – | – | IC50 (Bj-5ta): 37.9 ± 1.9 µM
22 | O=C(O)/C=C/c1ccc(O)c(O)c1 [caffeic acid, reference compound] | – | – | – | – | 586.0 (±32.8) µmol GAE/mmol | 690.7 (±36.6) µmol GAE/mmol | 500.0 (±33.5) µmol GAE/mmol | – | – | – | – | – | – | – | DPPH activity [2]: 690.7 ± 36.6 GAE/mmol
23 | O=C(O)/C=C/c1ccc(O)cc1 [p -coumaric acid, p-coumaric acid, reference compound] | – | – | – | – | 278.8 (±11.1) µmol GAE/mmol | 23.0 (±3.1) µmol GAE/mmol | 105.2 (±4.2) µmol GAE/mmol | – | – | – | – | – | – | – | –

— publication PMC10535268, “Design, Synthesis, and Evaluation of Novel Indole Hybrid Chalcones and Their Antiproliferative and Antioxidant Activity” (Molecules, 2023)
